Laboratory results reported in publication PMC7333658, “Identification and Quantification of Novel Major Metabolites of the Steroidal Aromatase Inhibitor, Exemestane” (Drug Metabolism and Disposition, 2018).
Where “and” joins values, the source holds several entries; their conditions need not be identical. Equal entries are not always repeated.

Tests used:
[1] = UPLC-MS/MS quantification of EXE and its metabolites in plasma of subjects taking EXE; assay type: in vivo, human; conditions: for Plasma Percentage of TEM (Mean ± S.E.): TEM = EXE + 17β-DHE + 17β-DHE-Gluc + 6-EXE-cys + 6-DHE-cys, calculated per subject, then mean of 132; for Plasma concentration, Mean ± S.E. / Plasma concentration, Range: n = 132 subjects; for Plasma concentration, Mean ± S.E.: 25 mg EXE daily orally for at least 28 days, sampled 4-6 hours after pill; for Plasma concentration, Range: 25 mg EXE daily orally, 4-6 hours after pill
Method: (§1) One hundred and thirty-two postmenopausal breast cancer patients (one Hispanic, two African Americans, two Asians, and 127 Caucasians; age range: 35–89 years) with ER+ breast tumors were recruited into this study from the Breast Oncology Clinic at the Penn State Hershey Cancer Institute. Approval was obtained from the Institutional Review Board at Penn State University with informed consent obtained from all subjects. Subjects took a single pill (25 mg) of EXE daily (orally) for at least 28 consecutive days and provided blood (10 ml) and urine (up to 50 ml) specimens between 4 and 6 hours after pill ingestion as described previously ([Luo et al., 2018]). Blood was separated by centrifugation at 1300g for 15 minutes at room temperature. Aliquoted plasma and buffy coat fractions of blood samples and aliquoted urine samples were stored at −80°C until analysis. As a control for EXE metabolism, specimens obtained from women not taking EXE who were recruited into other studies at Penn State University College of Medicine (Hershey, PA; n = 10) were also examined to exclude false positives ([Ashmore et al., 2013]).
To quantify in vivo levels of EXE and its metabolites, the sample preparation method was modified from that described earlier for metabolite identification. For EXE metabolite analysis in plasma, a 2.5-µl aliquot of each plasma sample was first spiked with 2.5 µl of a mixture of deuterium-labeled internal standards in methanol [D3-EXE (0.17 μM), D3-17β-DHE (1.7 μM), 17β-OH-EXE-d3-17-O-β-D-glucuronide (0.52 μM), D3-6-EXE-cys (0.06 μM), and D3-6-17β-DHE-cys (0.25 μM)]. Twenty microliters of pure methanol was then added to extract EXE and its metabolites and to precipitate proteins. After vortexing and subsequent centrifugation at 16,100g for 10 minutes at 4°C, 15 µl of the supernatant was transferred to a sample vial and mixed with 15 µl of water prior to analysis by UPLC-MS.
(§2) For the simultaneous quantification of EXE, 17β-DHE, 17β-DHE-Gluc, 6-EXE-cys, and 6-17β-DHE-cys, urine and plasma samples were prepared as described earlier. Using the same UPLC-MS system described earlier, UPLC was performed with solvent A (5 mM ammonium formate and 0.01% formic acid in water) and solvent B (100% acetonitrile) using the following conditions for both urine and plasma specimens: 0–1.5 minutes at 25% solvent B, a linear gradient to 52% solvent B for 1.5–2.5 minutes, 2.5–4.5 minutes at 52% solvent B, a linear gradient to 95% solvent B from 4.5 to 5 minutes, 5–9.5 minutes at 95% solvent B, followed by a linear gradient to initial conditions of 25% solvent B from 9.5 to 10 minutes. This was followed by a 1-minute run at 25% solvent B to equilibrate the column to initial conditions before the next sample injection. The flow rate was 0.4 ml/min from 0 to 5 minutes, 0.8 ml/min from 5 to 9.5 minutes, and back to 0.4 ml/min from 9.5 to 10 minutes. The injection volume of each prepared urine and plasma sample was 5 µl. The column temperature was 35°C. The Waters XEVO G2-S QTOF MS was operated in tandem mass spectrometry (MS/MS) mode, with the electrospray ionization probe operated in the positive-ion mode and a capillary voltage at 0.6 kV. The cone and desolvation gas flow rates were maintained at 50 and 800 l/h, respectively, and the collision gas flow rate was 0.1 l/h. The source and desolvation gas temperatures were 120°C and 500°C, respectively, and the dwell time for each ion was 300 ms.
(§3) The limits of quantification for EXE, 17β-DHE, 17β-DHE-Gluc, 6-EXE-cys, and 6-17β-DHE-cys were 2.1, 1.6, 1.2, 0.7, and 7.2 nM in plasma, respectively, and 2.1, 1.6, 6.3, 1.5, and 7.2 nM in urine, respectively. Standard curves were constructed by plotting the ratio of analyte peak area to peak area of the corresponding internal standard (described earlier) versus concentration of analyte standard. The concentrations of stock standards were 1000 ppm. […]

[2] = UPLC-MS/MS quantification of EXE and its metabolites in urine of subjects taking EXE; assay type: in vivo, human; conditions: for Urine Percentage of TEM (Mean ± S.E.): TEM = EXE + 17β-DHE + 17β-DHE-Gluc + 6-EXE-cys + 6-DHE-cys, calculated per subject, then mean of 132; for Urine concentration, Mean ± S.E. / Urine concentration, Range: n = 132 subjects; for Urine concentration, Mean ± S.E.: 25 mg EXE daily orally for at least 28 days, sampled 4-6 hours after pill; for Urine concentration, Range: 25 mg EXE daily orally, 4-6 hours after pill
Method: as §1
For EXE metabolite analysis in urine, a 2.5-µl aliquot of each urine sample was first spiked with 2.5 µl of the same deuterium-labeled internal standard mixture described earlier. Ten microliters of 75% methanol was then added to extract EXE and its metabolites. After vortexing and subsequent centrifugation at 16,100g for 10 minutes at 4°C, 10 µl of the supernatant was transferred to a sample vial and mixed with 5 µl of water prior to analysis by UPLC-MS.
as §2
as §3, with “ppm. A serial dilution of standards at concentrations ranging from 1.6 nM to 1.7 μM, 1.6 nM to 1.7 μM, 1.0 nM to 2.1 μM, 0.7 nM to 12 μM, and 4.6 nM to 2.4 μM was used to establish standard curves for EXE, 17β-DHE, 17β-DHE-Gluc, 6-EXE-cys, and 6-17β-DHE-cys, respectively.” for “ppm.”

[3] = ref Luo et al., 2018, cited from earlier work
[4] = in vivo; cited from earlier work

Row | Structure (SMILES) | Plasma Percentage of TEM (Mean ± S.E.) ([1]; plasma) | Plasma concentration, Mean ± S.E. ([1]; plasma) | Plasma concentration, Range ([1]; plasma) [nM] | Urine Percentage of TEM (Mean ± S.E.) ([2]; urine) | Urine concentration, Mean ± S.E. ([2]; urine) | Urine concentration, Range ([2]; urine) | Urine concentration range as printed in the discussion ([2]; female, human, in vivo) [pM] | further results
1 | C=C1CC2C(CCC3(C)C(O)CCC23)C2(C)C=CC(=O)C=C12 (stereo not drawn) [17β-DHE, 17β-dihydro-EXE] | 12% and 12 ± 1.2% | 2.5 nM and 2.5 ± 0.19 nM | 0.11 to 14 | 0.14% and 0.14 ± 0.025% | 0.0066 nmol/mg creatinine and 0.0066 ± 0.0012 nmol/mg creatinine | 0–0.099 nmol/mg creatinine |  | Fold lower average percentage of TEM than 17β-DHE-Gluc ([1]; plasma): 3 fold; Increase in plasma level with increasing numbers of the UGT2B17 deletion allele ([3]; same women taking EXE): 1.3 fold
2 | C=C1C[C@@H]2[C@H](CC[C@]3(C)C(=O)CC[C@@H]23)[C@@]2(C)C=CC(=O)C=C12 [EXE, Exemestane] | 17% and 17 ± 0.91% | 14 nM and 14 ± 1.7 nM | 0 to 105 | 1.7% and 1.7 ± 0.20% | 0.21 ± 0.045 nmol/mg creatinine | 0–3.2 nmol/mg creatinine |  | 
3 | C[C@]12CC[C@H]3[C@@H](CC(CSC[C@H](N)C(=O)O)C4=CC(=O)C=C[C@@]43C)[C@@H]1CC[C@@H]2O (stereo partly drawn) [6-17β-DHE-cys, 6-methylcysteinylandrosta-1,4-diene-17β-hydroxy-3-one] |  |  |  |  |  |  | 3.3 to 10000 | 
4 | C[C@]12C=CC(=O)C=C1C(CSC[C@H](N)C(=O)O)C[C@@H]1[C@@H]2CC[C@]2(C)C(=O)CC[C@@H]12 (single isomer, unassigned) [6-EXE-cys, 6-methylcysteinylandrosta-1,4-diene-3,17-dione] |  |  |  |  |  |  | 3.3 to 50000 | Share of the total mean cysteine conjugate levels in plasma ([1]; female, human, in vivo): 79%; Share of the total mean cysteine conjugate levels in urine ([2]; female, human, in vivo): 77%
5 | C=C1C[C@H]2[C@@H]3CC[C@H](O[C@@H]4O[C@H](C(=O)O)[C@@H](O)[C@H](O)[C@H]4O)[C@@]3(C)CC[C@@H]2[C@@]2(C)C=CC(=O)C=C12 [17β-DHE-Gluc, 17β-hydroxy-EXE-17-O-β-D-glucuronide] | 36% and 36 ± 1.8% | 30 nM and 30 ± 4.6 nM | 0.32 to 358 | 21% and 21 ± 1.6% | 1.4 nmol/mg creatinine and 1.4 ± 0.37 nmol/mg creatinine | 0.0068–45 nmol/mg creatinine |  | Ratio of mean combined cysteine conjugates (6-EXE-cys plus 6-17β-DHE-cys) to 17β-DHE-Gluc in urine ([2]; urine, 17β-DHE-Gluc is the lower): 5.5 fold; Decrease in plasma level with increasing numbers of the UGT2B17 deletion allele ([3]; women taking EXE): up to 29 fold
6 | CSc1ncnc2c1ncn2[C@@H]1O[C@H](CO)[C@@H](O)[C@H]1O [6-methylmercaptopurine riboside] |  |  |  |  |  |  |  | Fold lower levels in GSTM1-null genotype than in carriers of one or two copies of GSTM1 [4]: 2 fold
